What was measured:
HeLa [1] = experiment: Compound was tested for stimulation of the incorporation of 32Pi into phospholipids of HeLa cells at 10E-5 M concentration; format: functional, Homo sapiens
HeLa [2] = experiment: Compound was tested for stimulation of the incorporation of 32Pi into phospholipids of HeLa cells at 10E-6 M concentration; format: functional, Homo sapiens
HeLa [3] = experiment: Compound was tested for stimulation of the incorporation of 32Pi into phospholipids of HeLa cells at 10E-7 M concentration; format: functional, Homo sapiens
Mus musculus = organism: Mus musculus; experiment: In vitro binding affinity towards TPA receptor in mouse epidermal particulate fraction using [3H]TPA as radioligand
HeLa [4] = experiment: Compound was tested for stimulation of the incorporation of 32Pi into phospholipids of HeLa cells at 10E-8 M concentration; format: functional, Homo sapiens
HeLa [5] = experiment: Compound was tested for stimulation of the incorporation of 32Pi into phospholipids of HeLa cells at 10E-4 M concentration; format: functional, Homo sapiens

Work on CC(C)[C@H]1C(=O)N[C@H](CO)Cc2c[nH]c3cc(F)cc(c23)N1C yielded a Relativity (HeLa [1]) of 6.87 c.p.m. mg-1, a Relativity (HeLa [2]) of 7.43 c.p.m. mg-1 and a Relativity (HeLa [3]) of 1.78 c.p.m. mg-1. The pID50 (Mus musculus) was 5.85 and the Relativity (HeLa [4]) was 1.18 c.p.m. mg-1.
CC(C)[C@H]1C(=O)N[C@H](CO)Cc2c[nH]c3cccc(c23)N1C [INDOLACTUM] gave a Relativity (HeLa [1]) of 7.82 c.p.m. mg-1, a Relativity (HeLa [2]) of 4.69 c.p.m. mg-1 and a Relativity (HeLa [3]) of 1.36 c.p.m. mg-1. The pID50 (Mus musculus) was 5.97 and the Relativity (HeLa [4]) was 1.04 c.p.m. mg-1.
In the case of CC(C)[C@H]1C(=O)N[C@H](CO)Cc2c[nH]c3ccc(F)c(c23)N1C, the Relativity (HeLa [5]) is reported as 5.32 c.p.m. mg-1, the Relativity (HeLa [1]) is reported as 3.57 c.p.m. mg-1 and the Relativity (HeLa [2]) is reported as 1.28 c.p.m. mg-1. The Relativity (HeLa [3]) was 1.29 c.p.m. mg-1 and the pID50 (Mus musculus) was 4.41.

Reference: ChEMBL document CHEMBL1127236, “Synthesis and biological activities of fluorine-substituted ()-indolactam-V, the core structure of tumor promoter teleocidins” (1994)
